Laboratory results from patent publication US11351178B2, “Selective HDAC6 inhibitors” (ITALFARMACO S.P.A., priority 2017, dated 2022).

What was measured:
[1] = biological target: T1, recombinant human HDAC6 (Homo sapiens, UniProt Q9UBN7); assay: Enzymatic screening on recombinant human HDAC6; format: biochemical; settings: Table 2; read-out: HDAC6 IC50
T1 sequence (Q9UBN7 1-1215): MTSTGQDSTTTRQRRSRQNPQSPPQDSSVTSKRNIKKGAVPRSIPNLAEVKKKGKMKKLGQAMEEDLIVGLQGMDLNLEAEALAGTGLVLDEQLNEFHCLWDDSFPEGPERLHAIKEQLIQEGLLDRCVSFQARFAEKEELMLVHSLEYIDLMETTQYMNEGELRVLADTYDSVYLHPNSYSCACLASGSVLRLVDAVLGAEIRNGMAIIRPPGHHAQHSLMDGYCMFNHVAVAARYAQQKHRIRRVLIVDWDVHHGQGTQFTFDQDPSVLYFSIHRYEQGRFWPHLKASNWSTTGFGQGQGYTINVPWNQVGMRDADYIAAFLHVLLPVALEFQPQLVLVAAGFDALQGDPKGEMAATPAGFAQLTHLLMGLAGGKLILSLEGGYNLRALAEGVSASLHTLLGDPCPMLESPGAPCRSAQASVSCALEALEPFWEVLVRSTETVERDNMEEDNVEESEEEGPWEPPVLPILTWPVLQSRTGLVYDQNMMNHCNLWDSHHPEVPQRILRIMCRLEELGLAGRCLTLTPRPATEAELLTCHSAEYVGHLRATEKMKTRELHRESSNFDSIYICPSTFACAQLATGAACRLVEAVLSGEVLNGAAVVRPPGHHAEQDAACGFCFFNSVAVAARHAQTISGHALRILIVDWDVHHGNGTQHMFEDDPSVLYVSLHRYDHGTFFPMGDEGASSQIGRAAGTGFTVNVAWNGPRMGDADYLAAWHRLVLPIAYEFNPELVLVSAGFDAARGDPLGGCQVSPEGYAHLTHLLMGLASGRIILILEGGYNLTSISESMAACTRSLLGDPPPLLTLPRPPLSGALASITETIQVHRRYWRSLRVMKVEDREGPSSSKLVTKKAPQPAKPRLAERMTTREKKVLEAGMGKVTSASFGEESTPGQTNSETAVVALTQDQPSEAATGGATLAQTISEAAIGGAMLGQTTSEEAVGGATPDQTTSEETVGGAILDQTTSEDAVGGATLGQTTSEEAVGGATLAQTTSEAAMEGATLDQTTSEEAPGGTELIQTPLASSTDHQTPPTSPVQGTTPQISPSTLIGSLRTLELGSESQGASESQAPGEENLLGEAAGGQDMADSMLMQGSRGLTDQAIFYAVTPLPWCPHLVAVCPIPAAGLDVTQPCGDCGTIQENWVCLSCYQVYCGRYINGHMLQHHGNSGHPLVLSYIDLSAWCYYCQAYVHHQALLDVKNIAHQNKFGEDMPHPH
Summary of the method: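 Recombinant human HDAC isoforms were incubated with compound at 30 °C for isoform-specific times. Fluor de Lys, Fluor de Lys-Green or trifluoroacetyl-lysine substrate in Tris-HCl pH 8 buffer with NaCl, Tween-20 and glycerol was then added, followed by reaction at 30 °C.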

[2] = system: B 697 promyelocytic cell line; assay: Cytotoxicity on 697 cell line (CellTiter 96); format: cell-based; settings: 72 hours incubation, read-out: 697 TOXICITY
Method: Cytotoxic activity was evaluated on B 697 […] cell line for all synthesized compounds and on peripheral blood mononuclear cells (PBMCs) for compounds showing a good potency/selectivity profile.
Cells were seeded in plate (2×10^4 cells per well for 697, 5×10^5 cells per well for PBMCs). The test compounds (concentrations from 1.5 nM to 10000 nM for PBMCs and from 1 nM to 10000 nM for 697) were added after 24 hours and incubated 72 hours. The molecules cytotoxic activity was evaluated using CellTiter 96© Aqueous One Solution Cell Proliferation Assay (Promega), which measures the mitochondria function, following the manufacturer's instructions.

[3] = Stability in rat plasma; format: in vitro ADME; settings: after 4 hours, 37° C.
Method: In order to evaluate the stability to circulating enzymes, test compounds were incubated in human and rat plasma at 37° C. in a thermostated oscillating bath. Each test compound was incubated at μM (50 μM when the samples were analysed by UV/HPLC, 1 or 2 μM when the samples were analysed by LC-MS/MS) concentration for 0, 15, 30 min and 1, 2 and 4 hours. The reaction was stopped placing tubes on ice bath and adding acidified acetonitrile. After centrifugation for 10 minutes at 14000 rpm, an aliquot of the supernatant was diluted with water, filtered with 0.45 μm syringe filters and injected in HPLC-UV or in LC-MS/MS. The percentages of amount remaining at the various times of incubation with respect to initial amount were calculated. The half-life in plasma was also calculated.

[4] = Stability to Phase I metabolism in rat S9 liver fraction; format: in vitro ADME; settings: after 90 min, 37° C.
Method: Test compounds were incubated in rat and human liver S9 fraction at 37° C. up to 90 minutes in order to evaluate their stability to Phase I metabolism by hepatic enzymes. […] The reaction was stopped placing samples on ice bath and adding acidified acetonitrile. After centrifugation (10 minutes at 14000 rpm) an aliquot of the supernatant was diluted water, filtered with 0.45 μm regenerated cellulose syringe filters and injected in HPLC-UV or in LC-MS/MS. The percentages of the amount remaining at the various incubation times with respect to the initial amount were calculated. The intrinsic clearance was also calculated.

Structure (SMILES)	IC50 [1] [nM]	residual percentage in rat plasma [3] [%]	residual percentage in rat S9 fraction [4] [%]	IC50 [2] [µM]
Cn1c(Sc2ccc(C(=O)NO)cc2)nnc1C1CCN(C(=O)OC(C)(C)C)CC1 [comp. 82, tert-butyl 4-[5-[4-(hydroxycarbamoyl)phenyl]sulfanyl-4-methyl-1,2,4-triazol-3-yl]piperidine-1-carboxylate]	27	–	–	6.5
COc1ccc(C2(c3nnc(Sc4c(F)cc(C(=O)NO)cc4F)n3C)CCCCC2)cc1 [comp. 103, 3,5-difluoro-4-[[5-[1-(4-methoxyphenyl)cyclohexyl]-4-methyl-1,2,4-triazol-3-yl]sulfanyl]benzenecarbohydroxamic acid]	56	79	5	–
O=C(NO)c1cc(F)c(Sc2nnc(N3CCCC3)n2Cc2ccco2)c(F)c1 [comp. 116, 3,5-difluoro-4-[[4-(2-furylmethyl)-5-pyrrolidin-1-yl-1,2,4-triazol-3-yl]sulfanyl]benzenecarbohydroxamic acid]	25	78	65	–
O=C(NO)c1cc(F)c(Sc2nnc(-c3cnccn3)n2Cc2ccco2)c(F)c1 [comp. 139, 3,5-difluoro-4-[[4-(2-furylmethyl)-5-pyrazin-2-yl-1,2,4-triazol-3-yl]sulfanyl]benzenecarbohydroxamic acid]	18	90	40	–
COC(=O)c1ccc(Cc2nnnn2Cc2c(F)cc(C(=O)NO)cc2F)cc1 [comp. 155, methyl 4-[[1-[[2,6-difluoro-4-(hydroxycarbamoyl)phenyl]methyl]tetrazol-5-yl]methyl]benzoate]	172	–	–	22.7
O=C(O)c1ccc(Cc2nnn(Cc3ccc(C(=O)NO)cc3)n2)cc1 [comp. 158, 4-[[2-[[4-(hydroxycarbamoyl)phenyl]methyl]tetrazol-5-yl]methyl]benzoic acid]	231	–	–	16.9
O=C(O)c1ccc(Cc2nnn(Cc3c(F)cc(C(=O)NO)cc3F)n2)cc1 [comp. 160, 4-[[2-[[2,6-difluoro-4-(hydroxycarbamoyl)phenyl]methyl]tetrazol-5-yl]methyl]benzoic acid]	115	–	–	16.9
O=C(O)c1ccc(Cc2nnnn2Cc2c(F)cc(C(=O)NO)cc2F)cc1 [comp. 161, 4-[[1-[[2,6-difluoro-4-(hydroxycarbamoyl)phenyl]methyl]tetrazol-5-yl]methyl]benzoic acid]	327	–	–	16.9
O=C(O)c1cccc(-c2nnn(Cc3ccc(C(=O)NO)cc3)n2)c1 [comp. 163, 3-[2-[[4-(hydroxycarbamoyl)phenyl]methyl]tetrazol-5-yl]benzoic acid]	12	–	–	49
Nc1ccc(-c2nnnn2Cc2ccc(C(=O)NO)cc2)cc1 [comp. 170, 4-[[5-(4-aminophenyl)tetrazol-1-yl]methyl]benzenecarbohydroxamic acid]	8	–	–	61.4

Further compounds by falling IC50 [1], results first:

IC50 [1] [nM]	residual percentage in rat plasma [3] [%]	residual percentage in rat S9 fraction [4] [%]	Structure (SMILES)	IC50 [2] [µM]
1370	–	–	O=C(O)c1ccc(Cc2nnnn2Cc2ccc(C(=O)NO)cc2)cc1 [comp. 159, 4-[[1-[[4-(hydroxycarbamoyl)phenyl]methyl]tetrazol-5-yl]methyl]benzoic acid]	16.9
138	–	–	O=C(O)c1ccc(-c2nnn(Cc3ccc(C(=O)NO)cc3)n2)nc1 [comp. 162, 6-[2-[[4-(hydroxycarbamoyl)phenyl]methyl]tetrazol-5-yl]pyridine-3-carboxylic acid]	16.9
122	73	57	O=C(NO)c1cc(F)c(Sc2nnc(CN3CCCCC3)n2-c2ccc(F)cc2)c(F)c1 [comp. 115, 3,5-difluoro-4-[[4-(4-fluorophenyl)-5-(1-piperidylmethyl)-1,2,4-triazol-3-yl]sulfanyl]benzenecarbohydroxamic acid]	–
93	78	96	O=C(NO)c1cc(F)c(Cn2nnnc2Cc2ccccn2)c(F)c1.O=C(O)C(F)(F)F [comp. 135, 3,5-difluoro-4-[[5-(2-pyridylmethyl)tetrazol-1-yl]methyl]benzenecarbohydroxamic acid;2,2,2-trifluoroacetic acid]	–
35	10	72	O=C(NO)c1cc(F)c(Cn2nnnc2-c2cccc(S(F)(F)(F)(F)F)c2)c(F)c1 [comp. 109, 3,5-difluoro-4-[[5-[3-(pentafluoro-lambda6-sulfanyl)phenyl]tetrazol-1-yl]methyl]benzenecarbohydroxamic acid]	–
25	92	16	O=C(NO)c1ccc(Cn2nnc(-c3ccc(S(F)(F)(F)(F)F)cc3)n2)cc1 [comp. 110, 4-[[5-[4-(pentafluoro-lambda6-sulfanyl)phenyl]tetrazol-2-yl]methyl]benzenecarbohydroxamic acid]	–
25	76	91	Cn1c(Sc2c(F)cc(C(=O)NO)cc2F)nnc1-c1cccnc1 [comp. 153, 3,5-difluoro-4-[[4-methyl-5-(3-pyridyl)-1,2,4-triazol-3-yl]sulfanyl]benzenecarbohydroxamic acid]	–
17	82	88	O=C(NO)c1cc(F)c(Sc2nnc(N3CCOCC3)n2Cc2ccccc2)c(F)c1 [comp. 117, 4-[(4-benzyl-5-morpholino-1,2,4-triazol-3-yl)sulfanyl]-3,5-difluoro-benzenecarbohydroxamic acid]	–
16	79	7	O=C(NO)c1cc(F)c(Sc2nnc(-c3ccccc3F)n2Cc2ccco2)c(F)c1 [comp. 145, 3,5-difluoro-4-[[5-(2-fluorophenyl)-4-(2-furylmethyl)-1,2,4-triazol-3-yl]sulfanyl]benzenecarbohydroxamic acid]	–
14	100	52	Cc1nc2ccc(F)cc2cc1-c1nnc(Sc2c(F)cc(C(=O)NO)cc2F)n1C [comp. 137, 3,5-difluoro-4-[[5-(6-fluoro-2-methyl-3-quinolyl)-4-methyl-1,2,4-triazol-3-yl]sulfanyl]benzenecarbohydroxamic acid]	–
14	85	12	O=C(NO)c1cc(F)c(Sc2nnc(-c3ccccn3)n2Cc2ccco2)c(F)c1 [comp. 140, 3,5-difluoro-4-[[4-(2-furylmethyl)-5-(2-pyridyl)-1,2,4-triazol-3-yl]sulfanyl]benzenecarbohydroxamic acid]	–
